Laboratory results reported in ChEMBL document CHEMBL1136776, “Aromatic reduced amide bond peptidomimetics as selective inhibitors of neuronal nitric oxide synthase” (J Med Chem, 2003).
pKi: −log10 of the molar value. Square brackets hold non-standard residues; d marks the D form. Peptide text beside a SMILES is read from it. dArg(NO2) = N=C(NCCC[C@@H](N)C(=O)O)N[N+](=O)[O-]

Columns and labels:
Nitric oxide synthase 3 = molecular target: T1, Nitric oxide synthase 3 (Bos taurus, UniProt P29473)
T1 sequence (P29473 whole entry): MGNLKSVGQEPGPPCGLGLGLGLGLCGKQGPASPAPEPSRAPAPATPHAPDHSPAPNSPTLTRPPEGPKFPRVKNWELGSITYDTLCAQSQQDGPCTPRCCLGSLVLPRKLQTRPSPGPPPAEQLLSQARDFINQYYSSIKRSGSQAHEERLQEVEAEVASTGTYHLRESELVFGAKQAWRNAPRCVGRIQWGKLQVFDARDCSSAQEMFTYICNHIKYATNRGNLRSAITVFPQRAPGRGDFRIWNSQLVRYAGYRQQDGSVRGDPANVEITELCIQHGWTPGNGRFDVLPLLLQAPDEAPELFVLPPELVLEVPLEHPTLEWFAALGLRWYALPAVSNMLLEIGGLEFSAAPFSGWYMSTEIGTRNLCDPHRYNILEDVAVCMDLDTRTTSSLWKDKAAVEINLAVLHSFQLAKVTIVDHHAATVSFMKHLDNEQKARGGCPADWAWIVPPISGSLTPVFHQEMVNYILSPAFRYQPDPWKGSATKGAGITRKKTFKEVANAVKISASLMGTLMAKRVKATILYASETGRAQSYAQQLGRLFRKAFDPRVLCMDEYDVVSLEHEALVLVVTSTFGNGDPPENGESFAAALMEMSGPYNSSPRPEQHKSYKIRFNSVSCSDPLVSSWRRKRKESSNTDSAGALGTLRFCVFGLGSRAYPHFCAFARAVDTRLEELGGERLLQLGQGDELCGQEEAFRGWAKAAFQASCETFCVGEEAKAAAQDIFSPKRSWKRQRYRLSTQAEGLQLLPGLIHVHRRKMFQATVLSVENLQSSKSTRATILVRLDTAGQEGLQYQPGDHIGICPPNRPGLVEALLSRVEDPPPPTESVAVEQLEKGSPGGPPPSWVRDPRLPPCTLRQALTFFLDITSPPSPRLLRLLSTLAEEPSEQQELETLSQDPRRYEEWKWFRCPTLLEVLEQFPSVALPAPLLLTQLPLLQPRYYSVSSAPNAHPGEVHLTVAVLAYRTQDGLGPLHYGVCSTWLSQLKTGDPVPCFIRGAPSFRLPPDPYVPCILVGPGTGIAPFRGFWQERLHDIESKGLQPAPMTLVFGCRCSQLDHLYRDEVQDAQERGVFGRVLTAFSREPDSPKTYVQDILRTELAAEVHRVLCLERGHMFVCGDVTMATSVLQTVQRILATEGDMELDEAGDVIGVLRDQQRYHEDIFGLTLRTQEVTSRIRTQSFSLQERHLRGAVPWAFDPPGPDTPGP
Description: Inhibitory activity against endothelial nitric oxide synthase (eNOS)

[1] = Selectivity ratio of Ki value of eNOS to nNOS
[2] = Selectivity ratio of Ki value of iNOS to nNOS
Nitric oxide synthase 1 = Nitric oxide synthase 1 (Rattus norvegicus, UniProt P29476)
Sequence of Nitric oxide synthase 1 (P29476 whole entry): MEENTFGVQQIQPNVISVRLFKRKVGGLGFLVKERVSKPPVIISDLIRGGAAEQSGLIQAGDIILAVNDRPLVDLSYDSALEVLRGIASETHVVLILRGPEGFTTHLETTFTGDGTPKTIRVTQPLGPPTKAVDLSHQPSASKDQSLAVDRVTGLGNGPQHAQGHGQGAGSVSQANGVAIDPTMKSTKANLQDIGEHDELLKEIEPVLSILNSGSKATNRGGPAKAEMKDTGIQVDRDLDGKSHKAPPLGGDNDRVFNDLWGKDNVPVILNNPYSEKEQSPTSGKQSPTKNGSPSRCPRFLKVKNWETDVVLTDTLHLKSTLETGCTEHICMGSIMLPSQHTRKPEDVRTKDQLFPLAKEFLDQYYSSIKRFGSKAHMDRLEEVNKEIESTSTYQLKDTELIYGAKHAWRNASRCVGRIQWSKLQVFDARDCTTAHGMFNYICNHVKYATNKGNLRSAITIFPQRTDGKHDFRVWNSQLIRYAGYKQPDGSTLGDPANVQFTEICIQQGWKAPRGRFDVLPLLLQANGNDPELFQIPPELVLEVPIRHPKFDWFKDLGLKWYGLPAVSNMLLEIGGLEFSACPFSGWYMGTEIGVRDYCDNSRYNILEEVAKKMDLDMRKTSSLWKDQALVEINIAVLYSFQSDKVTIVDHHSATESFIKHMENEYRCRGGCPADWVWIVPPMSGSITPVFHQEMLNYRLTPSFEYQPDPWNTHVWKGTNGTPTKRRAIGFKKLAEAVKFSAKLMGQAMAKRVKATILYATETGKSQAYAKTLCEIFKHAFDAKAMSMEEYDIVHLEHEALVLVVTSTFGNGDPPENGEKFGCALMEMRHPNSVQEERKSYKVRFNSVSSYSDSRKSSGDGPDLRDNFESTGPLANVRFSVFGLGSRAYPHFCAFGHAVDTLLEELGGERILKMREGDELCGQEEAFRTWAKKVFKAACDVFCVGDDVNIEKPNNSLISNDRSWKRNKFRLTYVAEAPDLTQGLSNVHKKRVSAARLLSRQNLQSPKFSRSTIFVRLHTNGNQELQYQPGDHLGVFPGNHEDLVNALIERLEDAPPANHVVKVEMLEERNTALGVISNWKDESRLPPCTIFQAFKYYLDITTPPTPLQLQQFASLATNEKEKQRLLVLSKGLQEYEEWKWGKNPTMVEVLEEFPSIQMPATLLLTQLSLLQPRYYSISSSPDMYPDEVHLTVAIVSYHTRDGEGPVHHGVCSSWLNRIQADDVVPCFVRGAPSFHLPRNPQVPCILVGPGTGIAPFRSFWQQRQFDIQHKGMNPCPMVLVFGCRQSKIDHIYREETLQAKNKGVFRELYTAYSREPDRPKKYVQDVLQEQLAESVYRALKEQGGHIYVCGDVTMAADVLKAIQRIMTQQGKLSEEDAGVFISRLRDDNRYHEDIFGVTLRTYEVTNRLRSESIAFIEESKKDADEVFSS
Description: Inhibitory activity against Neuronal Nitric Oxide Synthase (nNOS)

Compound	pKi (Nitric oxide synthase 3)	Selectivity [1]	Selectivity [2]	pKi (Nitric oxide synthase 1)
N=C(NCCC[C@H](N)CNCCc1ccncc1)N[N+](=O)[O-]	3.71	–	–	–
NCc1ccccc1NC[C@@H](N)CCC/N=C(\N)N[N+](=O)[O-]	–	7.17	5.28	–
N/C(=N\CCC[C@H](N)CNCCc1ccc(N)cc1)N[N+](=O)[O-]	–	230	458	–
N=C(NCCC[C@H](N)CNCCc1ccccn1)N[N+](=O)[O-]	3.91	–	–	–
N/C(=N\CCC[C@H](N)CNCc1cccnc1)N[N+](=O)[O-]	–	951	256	–
N/C(=N\CCC[C@H](N)CNCCc1ccccc1N)N[N+](=O)[O-]	–	22.1	135	–
NCc1ccc(NC[C@@H](N)CCC/N=C(\N)N[N+](=O)[O-])cc1	–	299	245	–
NCCCC[C@@H](N)C(=O)N[C@H](CCC/N=C(/N)N[N+](=O)[O-])C(N)=O (H-[dK]-[dArg(NO2)]-NH2)	–	–	–	6.05
N/C(=N\CCC[C@H](N)CNCCc1cccc(N)c1)N[N+](=O)[O-]	–	35	122	–
N/C(=N\CCC[C@H](N)CNc1ccc(N)cc1)N[N+](=O)[O-]	–	51	149	–
N/C(=N\CCC[C@H](N)CNc1cccc(N)c1)N[N+](=O)[O-]	–	36	127	–
COC(=O)[C@@H](CCCNC(=N)N[N+](=O)[O-])NC(=O)[C@H](N)Cc1ccccc1 (H-[dF]-[dArg(NO2)]-OMe)	–	2.5	1800	5.70
